Measured values taken from ChEMBL document CHEMBL5303711, “ECBD screening data for assay EOS300108” (2023).
Counter-ions that a name gives are not always drawn. Activity calls are given as the source filed them. No rule for the calls is given here.

Assay: Cytotoxicity activity against human HepG2 cells assessed by CellTiter-Glo luminescent cell viability assay.
Type: toxicity, cell-based
Parameters: assay stage confirmatory assay, source tissue liver
Conditions: HepG2 cells, read-out: IC50 relative

SMILES | CC50
Nc1ccc2cc3ccc(N)cc3nc2c1 | 3.2 µM (active)
CC(=O)Nc1ccc(NC(=O)c2c(O)c3sccc3n(Cc3ccccc3)c2=O)cc1 | 50 µM (inactive)
Cc1cc(NC(=O)c2cscn2)ccc1NC(=O)c1ccco1 | 9.1 µM (active)
CC(C)c1ccc(S(=O)(=O)/N=C2/C=C(Sc3nc[nH]n3)C(=O)c3ccccc32)cc1 | 5.8 µM (active)
Cc1ccc(NCc2cc(=O)n3c(C)csc3n2)c(F)c1 | 7.2 µM (active)
COc1cc2c(cc1F)CN(Cc1cnc3ccccn13)CC2 | 2 µM (active)
COC(=O)C1=C(C)NC(C)=C(C(=O)OCC(C)C)C1c1ccccc1[N+](=O)[O-] (stereo not given) [NISOLDIPINE] | 11.1 µM (active)
CCCCc1nc(-c2ccc(OCCCN(CC)CC)cc2)cn1-c1ccc(Oc2ccc(Cl)cc2)cc1 [AZELIRAGON] | 1.2 µM (active)
COc1cc(OC)cc(C(=O)N2CCN(Cn3ncc(Cl)c(Cl)c3=O)CC2)c1 | 23.4 µM (inactive)
COc1ccc(OC)c([N+]2=C3SCCCN3C(O)(c3ccc(C)cc3)C2)c1 (stereo not given) | 11.6 µM (active)
CCC(C)NC(=O)N1CC(Oc2ccc(-c3noc(-c4cccnc4)n3)cc2)C1 (stereo not given) | 4.5 µM (active)
CN(C)Cc1ccc(C(=O)Nc2nc3c(s2)CCCC3)cc1 | 11.3 µM (active)
CC(=O)Nc1cccc(NC(=O)c2cc3ccccc3cc2O)c1 | 1.6 µM (inactive)
CN(C)CCOc1ccc2ccccc2c1Br | 12 µM (active)
COc1cccc(NC(=O)CN(C)C(=O)Cn2ncc(Cl)c(Cl)c2=O)c1 | 8.5 µM (active)
CC(C)CC(=O)Nc1[nH]nc2c1CN(C(=O)C1CCN(C)CC1)C2(C)C [PHA-793887] | 1 µM (active)
O=c1[nH]c(Cc2ccc(-n3cccn3)cc2)nc2ccccc12 | 2.1 µM (active)
Cc1cc(F)c(C(=O)Nc2cccc(-c3nncn3C(C)C)n2)cc1-n1cnc(C2CC2)c1 [SELONSERTIB] | 12.3 µM (active)
COc1ccc(-c2cn3nc(N4CCC(C(=O)NCCN(C)C)CC4)sc3n2)cc1 | 3.6 µM (active)
N#Cc1ccc(NC(=O)Cn2c(=O)ccn(Cc3ccccc3)c2=O)cc1 | 13.9 µM (inactive)
CCN(CC)C(=S)SSC(=S)N(CC)CC | 0.3 µM (inactive)
O=c1c2ccccc2sn1CN1CCN(c2ccc(C(F)(F)F)cn2)CC1 | 8.6 µM (active)

SMILES | CC50
NC(=O)c1cnc2[nH]ccc2c1N[C@@H]1[C@@H]2C[C@@H]3C[C@H]1C[C@@](O)(C3)C2 | 8 µM (active)
COc1ccc2c(c1)C(C(=O)N(Cc1ccc(N(C)C)cc1)c1ccc(C(C)C)cc1)CCC2 (stereo not given) | 23.2 µM (inactive)
O=C1Nc2ccccc2C2(CCN(CCc3ccc(C(F)(F)F)cc3)CC2)O1 | 10.7 µM (active)
CCOc1ccc(S(=O)(=O)N(C)c2ccccc2)cc1 | 7.5 µM (inactive)
O=C(Oc1c(Cl)cc(Cl)c2cccnc12)c1ccco1 | 8 µM (active)
Cc1cc(NC(=O)CSC(C)C)cc2sc(N)nc12 | 13.7 µM (active)
CCn1cc(-c2cccc(C(F)(F)F)c2)c2sc(C(=N)NC3CCS(=O)(=O)CC3)cc2c1=O | 11.1 µM (active)
O=C1COc2cc(C(=O)Nc3nc(-c4ccccn4)cs3)ccc2N1 | 1.5 µM (active)
COC[C@H](NC(=O)c1cnc(C)s1)C(=O)N[C@@H](COC)C(=O)N[C@@H](Cc1ccccc1)C(=O)[C@@]1(C)CO1 [OPROZOMIB] | 0.1 µM (active)
CCOc1cc(/C=C2/C(=O)N(c3ccccc3)N=C2C)cc(Cl)c1OCC(=O)OC | 12.3 µM (active)
Cc1ccc(NC(=O)CCN(C)CC2CCN(C)C2(C)C)cc1F (stereo not given) | 9.7 µM (active)
C[C@H]1Cc2c([nH]c3cc(Cl)c(F)cc23)[C@@]2(N1)C(=O)Nc1ccc(Cl)cc12 [CIPARGAMIN] | 10.8 µM (active)
Cc1cc(/C=C/C#N)cc(C)c1Nc1ccnc(Nc2ccc(C#N)cc2)n1 [RILPIVIRINE] | 11 µM (inactive)
O=S(=O)(c1ccc(S(=O)(=O)N2CCOc3ccccc32)cc1)N1CCCC1 | 4.2 µM (active)
Cc1c(Cl)sn(-c2ccc(Cl)cc2)c1=O | 4.4 µM (active)
Cc1cc2c(C(C)C)c(O)c(O)c(C=O)c2c(O)c1-c1c(C)cc2c(C(C)C)c(O)c(O)c(C=O)c2c1O [GOSSYPOL] | 6.4 µM (active)
CNc1snc(C)c1C(=O)N[C@@H](C)c1ccc2c(c1)OCCCO2 | 4.2 µM (active)
O=C(c1ccoc1)N1CCCN(Cc2ccc3c(c2)OCO3)c2ccccc21 | 20.4 µM (inactive)
NCCn1cc(C(=O)N2CCN(Cc3ccc(Br)s3)CC2)nn1 | 7.4 µM (active)
O=C(Nc1n[nH]c(C2CC2)n1)C1CC(=O)N(c2ccc(Br)cc2)C1 (stereo not given) | 1.8 µM (active)
N=C(N)c1ccc(OCCCCCOc2ccc(C(=N)N)cc2)cc1 [PENTAMIDINE ISETHIONATE] | 3.4 µM (active)
CC(C)c1cnc(NC(=O)N2CC[C@H](Nc3ccc4nccn4n3)C2)s1 | 3.2 µM (active)

SMILES | CC50
O=C(Nc1nc2cccc(-c3ccc(CN4CCS(=O)(=O)CC4)cc3)n2n1)C1CC1 [FILGOTINIB] | 6.4 µM (active)
CC(C)[C@H](NCC(=O)N1CCN(c2ccccn2)CC1)c1ccc(Cl)cc1 | 8 µM (active)
COc1cc(-c2nn(CCN3CCC(N(C)C)CC3)c3ncnc(N)c23)ccc1NC(=O)OC(C)(C)C | 2.1 µM (active)
CCc1cccc2c(C3CCNCC3)c[nH]c12 | 11.4 µM (active)
Fc1ccc(C(OCCN2CCN(CCCc3ccccc3)CC2)c2ccc(F)cc2)cc1 | 5.7 µM (active)
O=C(Nc1nccs1)c1cccc(S(=O)(=O)N2CCN(c3ccc(F)cc3)CC2)c1 | 3.1 µM (active)
O=[N+]([O-])c1ccc(-c2nc(-c3ccncc3)c(-c3ccc(F)cc3)[nH]2)cc1 [PD-169316] | 50 µM (inactive)
CCOC(=O)C(C)Oc1cccc2c(=O)n(CC(=O)Nc3ccc4c(c3)OCCO4)ccc12 (stereo not given) | 50 µM (inactive)
COc1ccc(-c2nc(NCCN3CCN(C)CC3)c3ccccc3n2)cc1 | 7.9 µM (active)
N#Cc1ccc(CN2CCN(C(=O)c3ccc(-n4cccn4)cc3)CC2)cc1 | 8.6 µM (active)
Cc1n[nH]c(C)c1CC(=O)Nc1cnn([C@@H](C)C2CC2)c1 | 50 µM (inactive)
CC(C)n1ncc2cc(NC(=O)c3cc4ccccc4cc3O)cnc21 | 10 µM (inactive)
CN1C[C@H](C(=O)N[C@]2(C)O[C@@]3(O)[C@@H]4CCCN4C(=O)[C@H](Cc4ccccc4)N3C2=O)C[C@@H]2c3cccc4[nH]cc(c34)C[C@H]21 [DIHYDROERGOTAMINE MESYLATE] | 12.9 µM (active)
C=CC(=O)Nc1ccc2ncnc(Nc3ccc(OCc4cccc(F)c4)c(Cl)c3)c2c1 | 7.7 µM (active)
CC(=O)N1N=C(c2ccc(Br)cc2)C[C@H]1c1ccc(O)cc1 | 20.2 µM (inactive)
Cc1ccc(Cl)cc1N1CCN(c2cc([C@H]3C[C@@H](O)C3)ncn2)CC1 | 9.5 µM (active)
Cc1cnccc1NCCNC1CCN(c2ccc(F)c(F)c2)CC1 | 1.7 µM (active)
COc1cc(-c2cc(-c3ccc(N4CCNCC4)cc3)cnc2C)cc(OC)c1OC | 9.1 µM (active)
c1ccc(-c2ccc(CNC3CN4CCC3CC4)cc2)cc1 (stereo not given) | 5.6 µM (active)
C[C@H]1CNC(=O)c2cnn3ccc(nc23)N[C@H](C)c2cc(F)ccc2O1 [REPOTRECTINIB] | 3.7 µM (active)
CS(=O)(=O)N1CCc2ccc(NC(=O)Nc3cccc(C#N)c3)cc21 | 9.7 µM (active)
